Assays:
SETVI (Foxtail, Green) [1] = test: Postemergence herbicidal evaluation; type: in vivo, Setaria viridis
In short: (§1)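 Two-week-old seedlings sprayed with compound in 50/50 acetone/water plus 0.5% TWEEN 20, at about 0.0156 to 0.500 kg/ha, nozzle at 40 psi. Kept in greenhouse; rated visually 4-5 weeks after treatment on a 0-9 scale versus control, repeat tests averaged.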

ECHCG (Barnyardgrass) = test: Preemergence herbicidal evaluation; type: in vivo, Echinochloa crus-galli; conditions: rated 4-5 weeks after treatment
In short: (§2)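 Preemergence soil application of compound, sprayed in aqueous acetone at rates equivalent to about 0.0156 to 0.500 kg per hectare onto freshly sown cups. Plant response was judged by eye on a 0-9 scale four to five weeks later.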

SETVI (Foxtail, Green) [2] = test: Preemergence herbicidal evaluation; type: in vivo, Setaria viridis; conditions: rated 4-5 weeks after treatment
In short: as §2

[3] = test system: ECHORC (Watergrass (Calif.)); test: Postemergence weed control under flooded paddy conditions; type: in vivo, Echinochloa oryzoides; conditions: postemergence weeds, 3-4 weeks after treatment
In short: (§3)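 Containers holding 3–5 cm weeds and rice at 1.5–2.5 leaves are flooded to 1.5–3 cm above soil. Compound in 50/50 v/v aqueous/acetone is then added directly to the water, about 0.0313–0.500 kg/ha. Plants are kept in the greenhouse and rated 0–9 visually at 3–4 weeks.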

ORYSAT (Rice, Tebonnet) = test: Postemergence herbicidal evaluation; type: in vivo, Oryza sativa, (L.) Tebonnet
In short: as §1

CYPIR (Rice Flatsedge) [4] = test: Preemergence weed control under flooded paddy conditions; type: in vivo, Cyperus iria; conditions: rated 3-4 weeks after treatment
In short: (§4)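 Flooded-pot preemergence screen with silt loam and seeds in the upper 0.5 cm. Dose about 0.0313 to 0.500 kg/ha, delivered into flood water; visual 0-9 score after 3 to 4 weeks.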

ZEAMX (Corn, Field) [5] = test: Preemergence herbicidal evaluation; type: in vivo, Zea mays; conditions: rated 4-5 weeks after treatment
In short: as §2

CYPSE (Flatsedge) [6] = test: Preemergence weed control under flooded paddy conditions; type: in vivo, Cyperus serotinus; conditions: rated 3-4 weeks after treatment
In short: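 Visual injury scored 0-9 against control three to four weeks post-treatment, greenhouse-grown. Application: acetone/water (50/50) solutions dosed directly into flood water (1.5-3 cm over silt loam, planted top 0.5 cm), roughly 0.0313 to 0.500 kg/ha active ingredient.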

[7] = test system: SAGPY (Arrowhead (Pygmaea)); test: Postemergence weed control under flooded paddy conditions; type: in vivo, Sagittaria pygmaea; conditions: postemergence weeds, 3-4 weeks after treatment
In short: as §3

[8] = test system: TRZAWR (Wheat, Winter, cv Riband); test: Preemergence herbicidal evaluation; type: in vivo, Triticum aestivum; conditions: rated 4-5 weeks after treatment
In short: as §2

[9] = test system: ECHORC (Watergrass (Calif.)); test: Preemergence weed control under flooded paddy conditions; type: in vivo, Echinochloa oryzoides; conditions: rated 3-4 weeks after treatment
In short: as §4

CYPSE (Flatsedge) [10] = test: Postemergence weed control under flooded paddy conditions; type: in vivo, Cyperus serotinus; conditions: postemergence weeds, 3-4 weeks after treatment
In short: as §3

CYPIR (Rice Flatsedge) [11] = test: as above; type: in vivo, Cyperus iria; conditions: postemergence weeds, 3-4 weeks after treatment
In short: as §3

ZEAMX (Corn, Field) [12] = test: Postemergence herbicidal evaluation; type: in vivo, Zea mays
In short: as §1

Compound: CCOC(=O)CN1C(=O)C(Cc2ccccc2OC)SC1=Nc1cc(-n2c(=O)cc(C(F)(F)F)n(C)c2=O)c(F)cc1Cl (stereo not drawn) [Compound 37, Ethyl 2-{{2-chloro-5-[3,6-dihydro-3-methyl-2,6-dioxo-4-(trifluoromethyl)-1(2H)-pyrimidinyl]-4-fluorophenyl}imino}-5-(o-methoxybenzyl)-4-oxo-3-thiazolidineacetate]
- Postemergence herbicidal rating SETVI (SETVI (Foxtail, Green) [1]; Rate 0.0158 kg/ha): 0.0
- Postemergence herbicidal rating SETVI (SETVI (Foxtail, Green) [1]; Rate 0.0315 kg/ha): 0.0
- Postemergence herbicidal rating SETVI (SETVI (Foxtail, Green) [1]; Rate 0.0630 kg/ha): 0.0
- Preemergence herbicidal rating ECHCG (ECHCG (Barnyardgrass); rate 0.1250 kg/ha): 0.0
- Preemergence herbicidal rating ECHCG (ECHCG (Barnyardgrass); rate 0.2500 kg/ha): 0.0
- Preemergence herbicidal rating SETVI (SETVI (Foxtail, Green) [2]; rate 0.1250 kg/ha): 0.0
- Preemergence herbicidal rating SETVI (SETVI (Foxtail, Green) [2]; rate 0.2500 kg/ha): 0.0
- Herbicidal rating ECHORC ([3]; rate 0.0313 kg/ha): 4.0
- Herbicidal rating ECHORC ([3]; rate 0.0625 kg/ha): 6.0
- Herbicidal rating ECHORC ([3]; rate 0.1250 kg/ha): 7.0
- Herbicidal rating ECHORC ([3]; rate 0.2500 kg/ha): 7.0
- Postemergence herbicidal rating ORYSAT (ORYSAT (Rice, Tebonnet); Rate 0.0158 kg/ha): 0.5
- Postemergence herbicidal rating ORYSAT (ORYSAT (Rice, Tebonnet); Rate 0.0315 kg/ha): 1.0
- Postemergence herbicidal rating ORYSAT (ORYSAT (Rice, Tebonnet); Rate 0.0630 kg/ha): 1.5
- Herbicidal rating CYPIR (CYPIR (Rice Flatsedge) [4]; 0.0313 kg/ha): 0.0
- Herbicidal rating CYPIR (CYPIR (Rice Flatsedge) [4]; 0.0625 kg/ha): 0.0
- Herbicidal rating CYPIR (CYPIR (Rice Flatsedge) [4]; 0.1250 kg/ha): 0.0
- Herbicidal rating CYPIR (CYPIR (Rice Flatsedge) [4]; 0.2500 kg/ha): 0.0
- Preemergence herbicidal rating ZEAMX (ZEAMX (Corn, Field) [5]; rate 0.1250 kg/ha): 0.0
- Preemergence herbicidal rating ZEAMX (ZEAMX (Corn, Field) [5]; rate 0.2500 kg/ha): 0.0
- Herbicidal rating CYPSE (CYPSE (Flatsedge) [6]; 0.0313 kg/ha): 0.0
- Herbicidal rating CYPSE (CYPSE (Flatsedge) [6]; 0.0625 kg/ha): 0.0
- Herbicidal rating CYPSE (CYPSE (Flatsedge) [6]; 0.1250 kg/ha): 0.0
- Herbicidal rating CYPSE (CYPSE (Flatsedge) [6]; 0.2500 kg/ha): 0.0
- Herbicidal rating SAGPY ([7]; rate 0.0313 kg/ha): 0.0
- Herbicidal rating SAGPY ([7]; rate 0.0625 kg/ha): 0.0
- Herbicidal rating SAGPY ([7]; rate 0.1250 kg/ha): 0.0
- Herbicidal rating SAGPY ([7]; rate 0.2500 kg/ha): 3.0
- Preemergence herbicidal rating TRZAWR ([8]; rate 0.1250 kg/ha): 0.0
- Preemergence herbicidal rating TRZAWR ([8]; rate 0.2500 kg/ha): 0.0
- Herbicidal rating ECHORC ([9]; 0.0313 kg/ha): 4.0
- Herbicidal rating ECHORC ([9]; 0.0625 kg/ha): 6.0
- Herbicidal rating ECHORC ([9]; 0.1250 kg/ha): 7.0
- Herbicidal rating ECHORC ([9]; 0.2500 kg/ha): 7.0
- Herbicidal rating CYPSE (CYPSE (Flatsedge) [10]; rate 0.0313 kg/ha): 0.0
- Herbicidal rating CYPSE (CYPSE (Flatsedge) [10]; rate 0.0625 kg/ha): 0.0
- Herbicidal rating CYPSE (CYPSE (Flatsedge) [10]; rate 0.1250 kg/ha): 0.0
- Herbicidal rating CYPSE (CYPSE (Flatsedge) [10]; rate 0.2500 kg/ha): 0.0
- Herbicidal rating CYPIR (CYPIR (Rice Flatsedge) [11]; rate 0.0313 kg/ha): 0.0
- Herbicidal rating CYPIR (CYPIR (Rice Flatsedge) [11]; rate 0.0625 kg/ha): 0.0
- Herbicidal rating CYPIR (CYPIR (Rice Flatsedge) [11]; rate 0.1250 kg/ha): 0.0
- Herbicidal rating CYPIR (CYPIR (Rice Flatsedge) [11]; rate 0.2500 kg/ha): 0.0
- Postemergence herbicidal rating ZEAMX (ZEAMX (Corn, Field) [12]; Rate 0.0158 kg/ha): 3.5
- Postemergence herbicidal rating ZEAMX (ZEAMX (Corn, Field) [12]; Rate 0.0315 kg/ha): 4.0
- Postemergence herbicidal rating ZEAMX (ZEAMX (Corn, Field) [12]; Rate 0.0630 kg/ha): 4.0

Compound: Cn1c(C(F)(F)F)cc(=O)n(-c2cc(N=C3NC(=O)CS3)c(Cl)cc2F)c1=O [Compound 39, 3-{4-Chloro-2-fluoro-5-[(4-oxo-2-thiazolidinylidene)amino]phenyl}-1-methyl-6-(trifluoromethyl)-2,4(1H,3H)-pyrimidinedione]
- Postemergence herbicidal rating SETVI (SETVI (Foxtail, Green) [1]; Rate 0.0158 kg/ha): 0.0
- Postemergence herbicidal rating SETVI (SETVI (Foxtail, Green) [1]; Rate 0.0315 kg/ha): 0.0
- Postemergence herbicidal rating SETVI (SETVI (Foxtail, Green) [1]; Rate 0.0630 kg/ha): 0.0
- Preemergence herbicidal rating ECHCG (ECHCG (Barnyardgrass); rate 0.0156 kg/ha): 0.0
- Preemergence herbicidal rating ECHCG (ECHCG (Barnyardgrass); rate 0.0313 kg/ha): 0.0
- Preemergence herbicidal rating ECHCG (ECHCG (Barnyardgrass); rate 0.0625 kg/ha): 0.0
- Preemergence herbicidal rating ECHCG (ECHCG (Barnyardgrass); rate 0.1250 kg/ha): 0.0
- Preemergence herbicidal rating ECHCG (ECHCG (Barnyardgrass); rate 0.2500 kg/ha): 0.0
- Preemergence herbicidal rating SETVI (SETVI (Foxtail, Green) [2]; rate 0.0156 kg/ha): 0.0
- Preemergence herbicidal rating SETVI (SETVI (Foxtail, Green) [2]; rate 0.0313 kg/ha): 0.0
- Preemergence herbicidal rating SETVI (SETVI (Foxtail, Green) [2]; rate 0.0625 kg/ha): 0.0
- Preemergence herbicidal rating SETVI (SETVI (Foxtail, Green) [2]; rate 0.1250 kg/ha): 0.0
- Preemergence herbicidal rating SETVI (SETVI (Foxtail, Green) [2]; rate 0.2500 kg/ha): 2.0
- Herbicidal rating ECHORC ([3]; rate 0.0313 kg/ha): 0.0
- Herbicidal rating ECHORC ([3]; rate 0.0625 kg/ha): 0.0
- Herbicidal rating ECHORC ([3]; rate 0.1250 kg/ha): 2.0
- Herbicidal rating ECHORC ([3]; rate 0.2500 kg/ha): 3.0
- Postemergence herbicidal rating ORYSAT (ORYSAT (Rice, Tebonnet); Rate 0.0158 kg/ha): 1.5
- Postemergence herbicidal rating ORYSAT (ORYSAT (Rice, Tebonnet); Rate 0.0315 kg/ha): 1.5
- Postemergence herbicidal rating ORYSAT (ORYSAT (Rice, Tebonnet); Rate 0.0630 kg/ha): 2.0
- Herbicidal rating CYPIR (CYPIR (Rice Flatsedge) [4]; 0.0313 kg/ha): 0.0
- Herbicidal rating CYPIR (CYPIR (Rice Flatsedge) [4]; 0.0625 kg/ha): 0.0
- Herbicidal rating CYPIR (CYPIR (Rice Flatsedge) [4]; 0.1250 kg/ha): 0.0
- Herbicidal rating CYPIR (CYPIR (Rice Flatsedge) [4]; 0.2500 kg/ha): 0.0
- Preemergence herbicidal rating ZEAMX (ZEAMX (Corn, Field) [5]; rate 0.0156 kg/ha): 0.0
- Preemergence herbicidal rating ZEAMX (ZEAMX (Corn, Field) [5]; rate 0.0313 kg/ha): 0.0
- Preemergence herbicidal rating ZEAMX (ZEAMX (Corn, Field) [5]; rate 0.0625 kg/ha): 0.0
- Preemergence herbicidal rating ZEAMX (ZEAMX (Corn, Field) [5]; rate 0.1250 kg/ha): 2.0
- Preemergence herbicidal rating ZEAMX (ZEAMX (Corn, Field) [5]; rate 0.2500 kg/ha): 5.0
- Herbicidal rating CYPSE (CYPSE (Flatsedge) [6]; 0.0313 kg/ha): 0.0
- Herbicidal rating CYPSE (CYPSE (Flatsedge) [6]; 0.0625 kg/ha): 0.0
- Herbicidal rating CYPSE (CYPSE (Flatsedge) [6]; 0.1250 kg/ha): 0.0
- Herbicidal rating CYPSE (CYPSE (Flatsedge) [6]; 0.2500 kg/ha): 0.0
- Herbicidal rating SAGPY ([7]; rate 0.0313 kg/ha): 0.0
- Herbicidal rating SAGPY ([7]; rate 0.0625 kg/ha): 0.0
- Herbicidal rating SAGPY ([7]; rate 0.1250 kg/ha): 0.0
- Herbicidal rating SAGPY ([7]; rate 0.2500 kg/ha): 4.0
- Preemergence herbicidal rating TRZAWR ([8]; rate 0.0156 kg/ha): 0.0
- Preemergence herbicidal rating TRZAWR ([8]; rate 0.0313 kg/ha): 0.0
- Preemergence herbicidal rating TRZAWR ([8]; rate 0.0625 kg/ha): 0.0
- Preemergence herbicidal rating TRZAWR ([8]; rate 0.1250 kg/ha): 1.0
- Preemergence herbicidal rating TRZAWR ([8]; rate 0.2500 kg/ha): 2.0
- Herbicidal rating ECHORC ([9]; 0.0313 kg/ha): 0.0
- Herbicidal rating ECHORC ([9]; 0.0625 kg/ha): 0.0
- Herbicidal rating ECHORC ([9]; 0.1250 kg/ha): 2.0
- Herbicidal rating ECHORC ([9]; 0.2500 kg/ha): 3.0
- Herbicidal rating CYPSE (CYPSE (Flatsedge) [10]; rate 0.0313 kg/ha): 0.0
- Herbicidal rating CYPSE (CYPSE (Flatsedge) [10]; rate 0.0625 kg/ha): 0.0
- Herbicidal rating CYPSE (CYPSE (Flatsedge) [10]; rate 0.1250 kg/ha): 0.0
- Herbicidal rating CYPSE (CYPSE (Flatsedge) [10]; rate 0.2500 kg/ha): 0.0
- Herbicidal rating CYPIR (CYPIR (Rice Flatsedge) [11]; rate 0.0313 kg/ha): 0.0
- Herbicidal rating CYPIR (CYPIR (Rice Flatsedge) [11]; rate 0.0625 kg/ha): 0.0
- Herbicidal rating CYPIR (CYPIR (Rice Flatsedge) [11]; rate 0.1250 kg/ha): 0.0
- Herbicidal rating CYPIR (CYPIR (Rice Flatsedge) [11]; rate 0.2500 kg/ha): 0.0
- Postemergence herbicidal rating ZEAMX (ZEAMX (Corn, Field) [12]; Rate 0.0158 kg/ha): 3.0
- Postemergence herbicidal rating ZEAMX (ZEAMX (Corn, Field) [12]; Rate 0.0315 kg/ha): 3.0
- Postemergence herbicidal rating ZEAMX (ZEAMX (Corn, Field) [12]; Rate 0.0630 kg/ha): 3.0

Source: patent US20020137929A1, “1 - (3-heterocyclylphenyl) isothiourea, -isourea, -guanidine and -amidine herbicidal agents” (Intellectual Property Department, BASF Aktiengesellschaft, priority 1998, published 2002)
